Measured values taken from article PMC3684613 (PLoS ONE, 2013).
Read-outs that look alike come from different tables or passages of the source.

How the values were obtained:
[1] = tested on: P. falciparum 3D7; parameters: method as in ChEMBL-NTD; details: ref ChEMBL-NTD, cited from earlier work
[2] = tested on: P. falciparum 3D7; test: DAPI stain fluorescent high content imaging assay, P. falciparum 3D7 (confirmatory screen, Avery); details: Plasmodium falciparum; for EC50: 3D7, read-out: EC50_nM; for inhibition of growth at 5 µM: 3D7, read-out: percent_inh @ 5 uM
[3] = values follow the order of the source (GNF; GSK; StJude)
[4] = original screening data, source (GSK, GNF, StJude), several values separated by ';' in order of sources

Row | Structure (SMILES) | EC50 [2] | inhibition of growth at 5 µM [2] | other results
1 | COc1ccc2c(=O)cc(C(Cl)(Cl)Cl)oc2c1 [MMV665820] | 520 nM | 94% | EC50 ([1]; source StJude (SJ id)): 15000 nM
2 | Cn1c(C(=O)c2cccc3ccccc23)nc2ccccc21 [MMV665824] | – | 89% | EC50 ([1]; source GNF): 6.92 nM
3 | COc1cccc(NC(=O)Cn2c(C)c(C#N)c3ccccc32)c1 [MMV665826] | 1090 nM | 95% | EC50 ([1]; source GNF): 79.6 nM; EC50 ([1]; source GSK): 878 nM
4 | CCOC(=O)c1cn(CC)c2cc(N3CCCCC3)c(F)cc2c1=O [MMV665827] | 119 nM | 100% | EC50 ([1]; source GNF (GNF-Pf id)): 166 nM; EC50 ([1]; source GSK (TCMDC id)): 125 nM
5 | CC1CC2=C(CC1CNCCCN(C)C)C(C)(C)CCC2 (centres unmarked) [MMV665830] | 1000 nM | 98% | EC50 [1, 3]: 250 nM
6 | CCOC(=O)c1c(NC(=O)c2ccccc2)sc2c(O)c(CN(CC)CC)ccc12 [MMV665831] | 205 nM | 96% | EC50 ([1]; source GNF (GNF-Pf id)): 267 nM; EC50 ([1]; source GSK (TCMDC id)): 969 nM
7 | O=C(Nc1ccc(-c2nc3ccccc3[nH]2)cc1)c1ccc(Cl)c(Cl)c1 [MMV665840] | 838 nM | 97% | EC50 [1, 3]: 523 nM
8 | CCCc1cc(O)c2c3c(c(=O)oc2c1)CN(C)CC3 [MMV665841] | 146 nM | 97% | EC50 ([1]; source GNF (GNF-Pf id)): 554 nM; EC50 ([1]; source GSK (TCMDC id)): 873 nM
9 | Oc1c2c(nc3ccccc13)CCCC2 [MMV665843] | – | 82% | EC50 [1, 4]: 628 nM
10 | Oc1ccc(Cl)cc1CNc1nc2ccccc2[nH]1 [MMV665850] | – | 95% | EC50 ([1]; source GNF): 921 nM
11 | O=C(Nc1ccc(Cl)c(Cl)c1)Nc1ccc(Cl)c(Cl)c1 [MMV665852] | 1160 nM | 96% | EC50 [1, 3]: 1030 nM
12 | CCOc1c(Cl)cc(CNC(C)C(O)c2ccccc2)cc1OC (centres unmarked) [MMV665857] | – | 98% | EC50 ([1]; source GNF): 1650 nM
13 | CCCCNc1nc(NC(C)(C)C)nc(NC(C)(C)C)n1 [MMV665864] | 706 nM | 98% | EC50 [1, 3]: 2160 nM
14 | Cc1cc(Nc2ccc(C)c(Cl)c2)n2nc(C(F)(F)F)nc2n1 [MMV665874] | 6.71 nM | 98% | EC50 ([1]; source GSK (TCMDC id)): 15.8 nM
15 | Cn1c(=O)n(C)c2cc(CNCCNc3ccnc4cc(Cl)ccc34)ccc21 [MMV665875] | 545 nM | 90% | EC50 [1, 3]: 140 nM
16 | CCC(c1ccccc1)c1nn2c(-c3cccs3)nnc2s1 (centres unmarked) [MMV665876] | 259 nM | 99% | EC50 ([1]; source GSK (TCMDC id)): 167 nM
17 | COc1cccc(NC(=O)[C@H](C(C)C)n2c(=O)[nH]c3ccccc3c2=O)c1 [MMV665878] | 139 nM | 99% | EC50 ([1]; source GSK (TCMDC id)): 266 nM
18 | CC(C)(C)C(=O)Nc1ccc(C(=O)Nc2cccc(-c3nc4ccccc4[nH]3)c2)cc1 [MMV665879] | – | 91% | EC50 [1, 4]: 282 nM
19 | COc1ccc(CNC(=O)c2cc3c(=O)n4ccccc4nc3n(CCc3ccccc3)c2=N)cc1 [MMV665881] | 1060 nM | 95% | EC50 [1, 3]: 330 nM
20 | OC(CNC1CCCCC1)Cn1c2ccc(I)cc2c2cc(I)ccc21 (centres unmarked) [MMV665882] | 466 nM | 97% | EC50 [1, 3]: 337 nM
21 | O=C(Nc1cccc(-c2nc3ccccc3[nH]2)c1)c1cccc(NC(=O)c2ccco2)c1 [MMV665883] | 745 nM | 95% | EC50 [1, 4]: 360 nM
22 | CC(Oc1ccc(NC(=O)c2cccs2)cc1)C(=O)c1ccc(Cl)cc1 (centres unmarked) [MMV665886] | 1030 nM | 87% | EC50 [1, 3]: 774 nM
23 | O=C(Nc1ccccc1O)c1ccc(Oc2cccc(C(=O)Nc3ccccc3O)c2)cc1 [MMV665888] | – | 91% | EC50 ([1]; source GSK): 799 nM
24 | COc1ccc(-c2nonc2NC(=O)c2cccc(C)c2)cc1OC [MMV665890] | – | 95% | EC50 [1, 4]: 806 nM

Row | Structure (SMILES) | EC50 [2] | inhibition of growth at 5 µM [2] | other results
25 | c1ccc(-c2ccc(-c3nc4ccccc4[nH]3)cc2)cc1 [MMV665891] | 1070 nM | 52% | EC50 ([1]; source GSK): 809 nM
26 | CC(=O)c1sc(NC(=O)Nc2ccc(C)cc2C)nc1C [MMV665894] | 536 nM | 64% | EC50 [1, 3]: 906 nM
27 | COc1ccc2nc(N)nc(C)c2c1 [MMV665897] | – | 63% | EC50 ([1]; source GSK (TCMDC ids)): 927 nM
28 | COc1cc(C(=O)Nc2ccc(-c3nc4ccccc4[nH]3)cc2)cc(OC)c1OC [MMV665898] | 1220 nM | 95% | EC50 [1, 3]: 982 nM
29 | O=C(c1ccccc1F)N(Cc1ccc(Cl)cc1)c1ccccn1 [MMV665899] | – | 59% | EC50 ([1]; source GSK): 1020 nM
30 | O=C(Nc1ccc(CN2CCOCC2)cc1)c1ccc(-c2ccc(Br)cc2)o1 [MMV665901] | 1360 nM | 96% | EC50 ([1]; source GSK): 1120 nM
31 | N=c1n(CCN2CCCCC2)c2ccccc2n1CC(O)c1cccc(Br)c1 (centres unmarked) [MMV665902] | 893 nM | 98% | EC50 ([1]; source GSK): 1140 nM
32 | COCCn1c(C)nc2ccccc2c1=O [MMV665904] | – | 59% | EC50 [1, 4]: 1460 nM
33 | Cc1ccc(-c2cc(C(=O)Nc3ccc(S(=O)(=O)N4CCCCC4)cc3)[nH]n2)c(O)c1 [MMV665906] | 535 nM | 94% | EC50 ([1]; source GSK): 1770 nM
34 | COc1ccc(N2CCN(C(CNC(=O)CC(C)(C)C)c3ccc4c(c3)OCO4)CC2)cc1 (centres unmarked) [MMV665908] | – | 95% | EC50 ([1]; source StJude (SJ ids)): 4280 nM
35 | O=C(Nc1nc(-c2ccccn2)cs1)c1ccccc1Br [MMV665909] | 1360 nM | 97% | EC50 ([1]; source StJude): 4530 nM
36 | CCOc1ccc(-c2nc(NC(=O)c3cccc(S(C)(=O)=O)c3)sc2C)cc1 [MMV665913] | – | 95% | EC50 ([1]; source StJude): 15000 nM
37 | COc1ccccc1N1CCN(C(CNS(=O)(=O)c2ccc(Cl)cc2)c2cccnc2)CC1 (centres unmarked) [MMV665914] | – | 93% | EC50 ([1]; source StJude): 15000 nM
38 | COc1ccc(-c2nc(NC(=O)CS(=O)(=O)c3ccc(F)cc3)sc2C)cc1 [MMV665915] | 448 nM | 97% | EC50 ([1]; source GNF (GNF-Pf id)): 212 nM; EC50 ([1]; source GSK (TCMDC id)): 243 nM
39 | COc1ccccc1CNC(=O)CCn1c(=O)[nH]c2ccccc2c1=O [MMV665916] | 72.6 nM | 64% | EC50 ([1]; source GNF (GNF-Pf id)): 537 nM
40 | O=C(Nc1ccc(Cl)cc1)N1CCN(c2ccc3nncn3n2)CC1 [MMV665917] | – | 62% | EC50 ([1]; source GNF): 2060 nM
41 | O=C(CSc1ccc2nnc(-c3cccc(F)c3)n2n1)Nc1ccc2c(c1)OCO2 [MMV665918] | – | 92% | EC50 ([1]; source GNF): 2110 nM
42 | N=c1c2ccccc2nnn1-c1cccc(C(F)(F)F)c1 [MMV665923] | – | 83% | EC50 ([1]; source GNF (GNF-Pf ids)): 134 nM
43 | COc1ccc(C(=O)C2CC2c2ccc(Cl)cc2)cc1 (centres unmarked) [MMV665924] | 1060 nM | 94% | EC50 ([1]; source GNF (GNF-Pf ids)): 217 nM
44 | O=C(CCl)NCCOc1ccc(Cl)cc1Cl [MMV665927] | 555 nM | 94% | EC50 [1, 3]: 538 nM
45 | CCC(C)NCC(O)(c1ccc(Cl)cc1)c1ccc(Cl)cc1 (centres unmarked) [MMV665928] | 642 nM | 98% | EC50 ([1]; source GNF): 639 nM; EC50 ([1]; source GSK): 843 nM
46 | CCCCNCC(O)(c1ccc(Cl)cc1)c1ccc(Cl)cc1 [MMV665929] | 843 nM | 97% | EC50 ([1]; source GNF): 720 nM
47 | O=C1c2ccccc2-c2nnc(-c3ccc(Br)cc3)cc21 [MMV665934] | 1070 nM | 99% | EC50 ([1]; source GNF (GNF-Pf ids)): 2500 nM
48 | FC(F)(F)c1ccc(Nc2nnnc3ccccc23)cc1 [MMV665935] | – | 77% | EC50 ([1]; source GNF): 7720 nM; EC50 ([1]; source GSK): 692 nM
